This passage reports IC50 results from patent US20070197523A1, “CALCIUM CHANNEL ANTAGONISTS” (ICAGEN, INC., priority 2005, published 2007).

The assay deals with T-type calcium channels. Put plainly: T-type calcium channel inhibitory activity (fluorometric FLIPR Fluo-4 and whole cell patch clamp). It is filed as cell-based, mammalian. As to conditions: inhibition of T-type calcium channels; cells natively expressing or HEK-293 cells expressing recombinant channels. On the procedure: T-type calcium channel inhibitory activity of some compounds of the invention was evaluated using both fluorometric as well as electrophysiological measurement methodologies, which are known to those skilled in the art. Fluorescence measurement of changes in intracellular calcium due to entry of calcium through T-type calcium channels was assessed using calcium sensitive fluorescent dyes Fluo-4 and Fluo-3. In brief, cells natively expressing T-type channels or HEK-293 cells transiently or stably expressing recombinant mammalian T-type calcium channels grown in 96-well tissue culture plates in DMEM/High glucose, Hyclone, Fetal Bovine Serum (10%), and 2 mM sodium pyruvate 2 mM (and for cells lines recombinantly expressing T-type calcium channels, G418 @ 400 mg/liter) were loaded with 4 μM Fluo-4 made up in Earls Balanced Salt Solution (EBSS). After incubation for 30 minutes at room temperature, cells were washed with low calcium (0.5 mM) EBSS to remove extracellular Fluo-4. Baseline fluorescence was measured in a FLIPR (FLuorescence Image Plate Reader) (Molecular Devices Inc) after applying test compounds at desired concentration for 5-10 minutes. The effect of test compound on calcium entry was assessed by monitoring changes in Fluo-4 fluorescence following an elevation of extracellular calcium concentration from 0.5 mM to 5 mM. […] Native cells natively expressing T-type channels or HEK-293 cells transiently or stably expressing recombinant mammalian T-type calcium channels were grown in DMEM/High glucose, Hyclone, Fetal Bovine Serum (10%), 2 mM sodium pyruvate 2 mM (and for cells lines recombinantly expressing T-type calcium channels, G418 @ 400 mg/liter) on glass coverslips in 35 mm tissue culture dishes. Experiments were performed by placing T-type calcium channels expressing cells in a recording chamber perfused with EBSS (which contains (in mM): 132 NaCl, 5.4 KCl, 1.8 CaCl2, 0.8 MgCl2, 10 Hepes, 5 glucose, pH 7.4 with NaOH) on the stage of an inverted microscope. Electrical currents were measured using the whole cell configuration of the patch clamp technique (Axopatch 200B, Axon Instruments (Molecular Devices) (see Hamill et al (1981) Pflugers Arch. 1981 391:85-100) using 2-2.5 MOhm resistance glass pipettes filled with 135 CsF, 5 CsCl, 5 NaCl, 5 EGTA, 10 HEPES, pH 7.3 with CsOH, Osmolarity ˜288 mOsm. Test compound effects were typically assessed under conditions in which approximately half of the available channels were inactivated either by an 8 second conditioning depolarization from a holding potential of −100 mV to a potential ranging from −70 mV to −60 mV or by continually holding the membrane potential at −70 mV. Test compounds were assessed for their ability to reduce the amplitude of the inward T-type calcium current elicited by a 100 ms step depolarization −20 or −30 mV.
Regarding `CCOc1cccc(S(=O)(=O)c2cnc(Nc3cc(OCCN4CCCC4)nc(C)n3)s2)c1` [Example 20, [5-(3-Ethoxy-benzenesulfonyl)-thiazol-2-yl]-[2-methyl-6-(2-pyrrolidin-1-yl-ethoxy)-pyrimidin-4-yl]-amine], the IC50 lay in the range of 0.001 to 1 µM.

In the case of `CCOc1cccc(S(=O)(=O)c2cnc(Nc3cc(NCC(C)(C)N)nc(C)n3)s2)c1` [Example 6, N-(2-Amino-2-methyl-propyl)-N′-[5-(3-ethoxy-benzenesulfonyl)-thiazol-2-yl]-2-methyl-pyrimidine-4,6-diamine], the IC50 was 0.001 to 1 µM.

Regarding `CCOc1cccc(S(=O)(=O)c2cnc(Nc3nc(C)nc(NCCN4CCCC4)c3F)s2)c1` [Example 12, N-[5-(3-Ethoxy-benzenesulfonyl)-thiazol-2-yl]-5-fluoro-2-methyl-N′-(2-pyrrolidin-1-yl-ethyl)-pyrimidine-4,6-diamine], the IC50 lay in the range of 0.001 to 1 µM.

In the case of `CCOc1cccc(S(=O)(=O)c2cnc(Nc3nc(C)nc(OCCC4CCCC4)c3F)s2)c1` [Example 26, [6-(2-Cyclopentyl-ethoxy)-5-fluoro-2-methyl-pyrimidn-4-yl]-[5-(3-ethoxy-benzenesulfonyl)-thiazol-2-yl]-amine], the IC50 was in the range of 10 to 1000 µM.

Turning to `CCOc1cccc(S(=O)(=O)c2cnc(Nc3cc(NCC[C@H]4CCNC4)nc(C)n3)s2)c1` [Example 10, N-[5-(3-ethoxy-benzenesulfonyl)-thiazol-2-yl]-2-methyl-N′-(R)-(pyrrolidin-3-yl-ethyl)-pyrimidine-4,6-diamine], the concentration for half-maximal inhibition (IC50) lay in the range of 0.001 to 1 µM.

Take `CCOc1cccc(S(=O)(=O)c2cnc(Nc3cc(C#CCOC)nc(C)n3)s2)c1` [Example 29, [5-(3-Ethoxy-benzenesulfonyl)-thiazol-2-yl]-[6-(3-methoxy-prop-1-ynyl)-2-methyl-pyrimidin-4-yl]-amine]: the IC50 is 1 to 10 µM.

Turning to `CCOc1cccc(S(=O)(=O)c2cnc(Nc3cc(NCCN(C)C)ncn3)s2)c1` [Example 3, N-(2-Dimethylamino-ethyl)-N′-[5-(3-ethoxy-benzenesulfonyl)-thiazol-2-yl]-pyrimidine-4,6-diamine], the IC50 was in the range of 0.001 to 1 µM.

With `CCOc1cccc(S(=O)(=O)c2cnc(N(CCCN3CCOCC3)c3nc(C)nc(NCCOC)c3F)s2)c1` [Example 15, N-[5-(3-ethoxy-benzenesulfonyl)-thiazol-2-yl]-5-fluoro-N′-(2-methoxy-ethyl)-2-methyl-N-(3′-morpholin-4-yl-propyl)-pyrimidine-4,6-diamine], the IC50 is 0.001 to 1 µM.

With `CCOc1cccc(S(=O)(=O)c2cnc(Nc3nc(C)nc(OCCN4CCCC4)c3F)s2)c1` [Example 24, [5-(3-Ethoxy-benzenesulfonyl)-thiazol-2-yl]-[5-fluoro-2-methyl-6-(2-pyrrolidin-1-yl-ethoxy)-pyrimidin-4-yl]-amine], the IC50 lay within 0.001 to 1 µM.

Regarding `CCOc1cccc(S(=O)(=O)c2cnc(Nc3cc(NCCN4CCCC4)nc(C)n3)s2)c1` [Example 9, N-[5-(3-ethoxy-benzenesulfonyl)-thiazol-2-yl]-2-methyl-N′-(2-pyrrolidin-1-yl-ethyl)-pyrimidine-4,6-diamine], the IC50 lay within 0.001 to 1 µM.

In the case of `CCOc1cccc(S(=O)(=O)c2cnc(Nc3cc(NCCOC)nc(C)n3)s2)c1` [Example 7, N-[5-(3-ethoxy-benzenesulfonyl)-thiazol-2-yl]-N′-(2-methoxy-ethyl)-2-methyl-pyrimidine-4,6-diamine], the IC50 lay within 1 to 10 µM.

On to `CCOc1cccc(S(=O)(=O)c2cnc(Nc3nc(C)nc(N(C)CCOC)c3F)s2)c1` [Example 13, N-[5-(3-ethoxy-benzenesulfonyl)-thiazol-2-yl]-5-fluoro-N′-(2-methoxy-ethyl)-2, N′-dimethyl-pyrimidine-4,6-diamine], for which the IC50 is 0.001 to 1 µM.

For the molecule `CCOc1cccc(S(=O)(=O)c2cnc(NC(=O)Cc3ccc(OC)c(OC)c3)s2)c1` [Example 1, 2-(3,4-Dimethoxy-phenyl)-N-[5-(3-ethoxy-benzenesulfonyl)-thiazol-2-yl]-acetamide], the IC50 was in the range of 0.001 to 1 µM.

For `CCOc1cccc(S(=O)(=O)c2cnc(Nc3cc(OCCOC)nc(C)n3)s2)c1` [Example 23, N-[5-(3-ethoxy-benzenesulfonyl)-thiazol-2-yl]-[6-(2-methoxy-ethoxy)-2-methyl-pyrimidin-4-yl]-amine], the IC50 was in the range of 0.001 to 1 µM.

`CCOc1cccc(S(=O)(=O)c2cnc(Nc3cc(NCCOC)nc(C(F)(F)F)n3)s2)c1` [Example 17, N-[5-(3-ethoxy-benzenesulfonyl)-thiazol-2-yl]-N′-(2-methoxy-ethyl)-2-trifluoromethyl-pyrimidine-4,6-diamine]: the IC50 was 0.001 to 1 µM.

As for `CCOc1cccc(S(=O)(=O)c2cnc(Nc3cc(NCCN4CCCC4)nc(C(F)(F)F)n3)s2)c1` [Example 16, N-[5-(3-Ethoxy-benzenesulfonyl)-thiazol-2-yl]-N′-(2-pyrrolidin-1-yl-ethyl)-2-trifluoromethyl-pyrimidine-4,6-diamine], the IC50 lay within 0.001 to 1 µM.

With `CCOc1cccc(S(=O)(=O)c2cnc(Nc3nc(C)nc(NCC(C)(C)N)c3F)s2)c1` [Example 14, N-(2-Amino-2-methyl-propyl)-N′-[5-(3-ethoxy-benzenesulfonyl)-thiazol-2-yl]-5-fluoro-2-methyl-pyrimidine-4,6-diamine], the IC50 fell in the range of 0.001 to 1 µM.

Regarding `CCOc1cccc(S(=O)(=O)c2cnc(Nc3cc(NCCN(C)C)nc(C(F)(F)F)n3)s2)c1` [Example 19, N-(2-Dimethylamino-ethyl)-N′-[5-(3-ethoxy-benzenesulfonyl)-thiazol-2-yl]-2-trifluoromethyl-pyrimidine-4,6-diamine], the IC50 fell in the range of 0.001 to 1 µM.

`CCOc1cccc(S(=O)(=O)c2cnc(Nc3cc(NCCN(C)C)nc(C)n3)s2)c1` [Example 8, N-(2-Dimethylamino-ethyl)-N′-[5-(3-ethoxy-benzenesulfonyl)-thiazol-2-yl]-2-methyl-pyrimidine-4,6-diamine]: the IC50 lay in the range of 0.001 to 1 µM.

As for `CCOc1cccc(S(=O)(=O)c2cnc(Nc3cc(OC[C@H]4CCCN4)nc(C)n3)s2)c1` [Example 21, N-[5-(3-ethoxy-benzenesulfonyl)-thiazol-2-yl]-[2-methyl-((6R)-1-pyrrolidin-2-yl-methoxy)pyrimidin-4-yl]-amine], the IC50 is 0.001 to 1 µM.

As to `CCOc1cccc(S(=O)(=O)c2cnc(Nc3nc(C)nc(OCCN(C)C)c3F)s2)c1` [Example 27, [6-(2-Dimethylamino-ethoxy)-5-fluoro-2-methyl-pyrimidn-4-yl]-[5-(3-ethoxy-benzenesulfonyl)-thiazol-2-yl]-amine], the IC50 was 0.001 to 1 µM.

With `CCOc1cccc(S(=O)(=O)c2cnc(Nc3cc(OC4CCNC4)nc(C)n3)s2)c1` (stereo not drawn) [Example 22, N-[5-(3-ethoxy-benzenesulfonyl)-thiazol-2-yl]-[2-methyl-6-(pyrrolidin-3-yloxy)pyrimidin-4-yl]-amine], the 50% inhibitory concentration (IC50) fell in the range of 0.001 to 1 µM.

As to `CCOc1cccc(S(=O)(=O)c2cnc(Nc3cc(C#CC(C)(C)N(C)C(=O)OC(C)(C)C)nc(C)n3)s2)c1` [Example 31, (3-{6-[5-(3-Ethoxy-benzenesulfonyl)-thiazol-2ylamino]-2-methyl-pyrimidin-4-yl}-1,1-dimethyl-prop-2-ynyl)-methyl-carbamic acid tert-butyl ester], the IC50 is 0.001 to 1 µM.

`CCOc1cccc(S(=O)(=O)c2cnc(Nc3cc(OCCN(C)C)nc(C(F)(F)F)n3)s2)c1` [Example 28, [6-(2-Dimethylamino-ethoxy)-2-trifluormethyl-pyrimidin-4-yl]-[5-(3-Ethoxy-benzenesulfonyl)-thiazol-2-yl]-amine]: the IC50 lay within 0.001 to 1 µM.

Consider “[5-(3-Ethoxy-benzenesulfonyl)-thiazol-2-yl]-[6-(3-methylamino)propyl)-2-methyl-pyrimidin-4-yl]-amine [Example 35]”, for which the IC50 fell in the range of 0.001 to 1 µM.

On to `CCOc1cccc(S(=O)(=O)c2cnc(Nc3cc(CCCOC)nc(C)n3)s2)c1` [Example 32, [5-(3-Ethoxy-benzenesulfonyl)-thiazol-2-yl]-[6-(3-methoxy-propyl)-2-methyl-pyrimidin-4-yl]-amine], for which the IC50 lay in the range of 0.001 to 1 µM.

For the molecule `CCOc1cccc(S(=O)(=O)c2cnc(Nc3cc(NCCN4CCCC4)ncn3)s2)c1` [Example 2, N-(2-Pyrrolidin-1-ethyl)-N′-[5-(3-ethoxy-benzenesulfonyl)-thiazol-2-yl]-pyrimidine-4,6-diamine], the IC50 is 0.001 to 1 µM.
